# Measurements as given in US12606739B2, “Luminescent compound, method for producing luminescent compound, luminescent composition, luminescent thin film and luminescent particles” (KONICA MINOLTA, INC., priority 2020, dated 2026).
# Assay: Luminescence quantum yield of luminescent particles (melamine resin particles, aqueous dispersion)
# Type: physicochemical
# Settings: luminescent particle, concentration of the dye in the particle 20%, absolute fluorescence quantum yield
# Protocol: The synthesized luminescent compound (Exemplary Compound 1-1) according to one or more embodiments of the present invention was added to 22 mL of water and dissolved. Thereafter, 2 mL of a 5% aqueous solution of Emulsion® 430 (polyoxyethyleneoleyl ether, manufactured by Kao Corporation), an emulsifier for emulsion polymerization, was added to the solution. After the solution was heated to 70° C. with stirring on a hot stirrer, 0.65 g of NIKALAC MX-035 (manufactured by Nippon Carbide Industries Co., Inc.), a melamine resin raw material, was added thereto. […]
# Specifically, centrifugation was performed for 15 minutes at 20000 G using a centrifuge (Micro Refrigerated Centrifuge Model 3740 manufactured by Kubota Corporation), the supernatant was removed, ultrapure water was added thereto, ultrasonic irradiation was performed, and redispersion was performed. […] The absolute fluorescence quantum yield of the obtained aqueous dispersion of the fluorescent particles was measured using the fluorescence quantum yield measuring device (C11347-01, manufactured by Hamamatsu Photonics K.K), and this was taken as the luminescence quantum yield of the luminescent particles.
# With respect to the above-described Comparative Compound 1 and Comparative Compound 2, preparation of luminescent particles and measurement of the luminescence quantum yield were performed in the same manner. […]
row,Compound,Luminescence Quantum Yield [%]
1,CC(C)c1cccc(C(C)C)c1N1C(=O)c2cc(Oc3ccc(S(=O)(=O)O)cc3)c3c4c(Oc5ccc(S(=O)(=O)O)cc5)cc5c6c(cc(Oc7ccc(S(=O)(=O)O)cc7)c(c7c(Oc8ccc(S(=O)(=O)O)cc8)cc(c2c37)C1=O)c64)C(=O)N(c1c(C(C)C)cccc1C(C)C)C5=O [Comparative Compound 1],10
2,CC(C)c1cccc(C(C)C)c1N1C(=O)c2cc(Oc3ccc(S(=O)(=O)O)cc3-c3ccccc3)c3c4c(Oc5ccc(S(=O)(=O)O)cc5-c5ccccc5)cc5c6c(cc(Oc7ccc(S(=O)(=O)O)cc7-c7ccccc7)c(c7c(Oc8ccc(S(=O)(=O)O)cc8-c8ccccc8)cc(c2c37)C1=O)c64)C(=O)N(c1c(C(C)C)cccc1C(C)C)C5=O [Comparative Compound 2],9
